According to patent US11337976B2 (Plexxikon Inc., priority 2011, dated 2022):

Test system: A375 melanoma cells (B-Raf V600E mutation)
Assay: A375 (A375_P-ERK) cell activity / cell growth inhibition assay
Type: cell-based, human
Conditions: Homo sapiens, A-375; A375 cells (text: A375_P-ERK)
Experimental: Compounds are assessed in a variety of cell based assays. For example human cell lines with B-RafV600E mutation (A375 melanoma, SKMEL3 melanoma, and COLO205 colon adenocarcinoma), as well as tumorigenic cell lines with wild-type B-RAF (SW620 colon adenocarcinoma) or with Ras mutations (SKMEL2 melanoma and IPC298 melanoma).
On day 1, cells are counted, then centrifuged in a conical tube for 5 minutes at 1000 rpm.
On day 2, compound at a maximum concentration of 5 mM is serially diluted 1:3 (e.g. 10 μL with 30 μL dimethyl sulfoxide) for a total of 8 point titration with DMSO as a control. A 1 μL aliquot of each dilution point and control is added to 249 μL growth media and 50 μL is added to a well containing cells, providing 10 μM compound at the maximum concentration point. The cells are incubated for 3 days at 37° C. in 5% CO2.
ATPlite is added 25 μL to each well, shake for 2 minutes, and the cells are incubated at room temperature for 10 minutes, then luminescence is read on Safire reader. The measured luminescence correlates directly with cell number, such that the reading as a function of compound concentration is used to determine the IC50 value.

| IC50 [µM] | SMILES |
| --- | --- |
| < 1 | CCN(C)S(=O)(=O)Nc1ccc(F)c(C(=O)c2c[nH]c3ncc(Cl)cc23)c1F [P-0012, 5-chloro-3-[3-[[ethyl(methyl)sulfamoyl]amino]-2,6-difluoro-benzoyl]-1H-pyrrolo[2,3-b]pyridine] |
| < 1 | CCN(C)S(=O)(=O)Nc1ccc(F)c(C(=O)c2c[nH]c3ncc(-c4cnc(OC)nc4)cc23)c1F [P-0014] |
| < 1 | O=C(c1c(F)ccc(NS(=O)(=O)N2CCCC2)c1F)c1c[nH]c2ncc(F)c(NCC3CC3)c12 [P-0016, N-[3-[4-(cyclopropylmethylamino)-5-fluoro-1H-pyrrolo[2,3-b]pyridine-3-carbonyl]-2,4-difluoro-phenyl]pyrrolidine-1-sulfonamide] |
| < 1 | CCN(C)S(=O)(=O)Nc1ccc(F)c(C(=O)c2c[nH]c3ncc(C#N)cc23)c1F [P-0017, 5-cyano-3-[3-[[ethyl(methyl)sulfamoyl]amino]-2,6-difluoro-benzoyl]-1H-pyrrolo[2,3-b]pyridine] |
| < 1 | CCN(C)S(=O)(=O)Nc1cccc(C(=O)c2c[nH]c3ncc(Cl)cc23)c1F [P-0018, 5-chloro-3-[3-[[ethyl(methyl)sulfamoyl]amino]-2-fluoro-benzoyl]-1H-pyrrolo[2,3-b]pyridine] |
| < 1 | CCN(C)S(=O)(=O)Nc1cccc(C(=O)c2c[nH]c3ncc(-c4ccc(Cl)cc4)cc23)c1F [P-0019] |
| < 1 | CCN(C)S(=O)(=O)Nc1cccc(C(=O)c2c[nH]c3ncc(-c4cnc(OC)nc4)cc23)c1F [P-0020] |
| < 1 | Cc1cnc2[nH]cc(C(=O)c3cccc(NS(=O)(=O)N4CCCC4)c3F)c2c1 [P-0023, N-[2-fluoro-3-(5-methyl-1H-pyrrolo[2,3-b]pyridine-3-carbonyl)phenyl]pyrrolidine-1-sulfonamide] |
| < 1 | COc1ncc(-c2cnc3[nH]cc(C(=O)c4cccc(NS(=O)(=O)N(C)C5CC5)c4F)c3c2)cn1 [P-0025] |
| > 1 | CNS(=O)(=O)Nc1cccc(C(=O)c2c[nH]c3ncc(-c4cnc(OC)nc4)cc23)c1F [P-0026] |
| < 1 | CCN(C)S(=O)(=O)Nc1cccc(C(=O)c2c[nH]c3ncc(-c4ccc(C)nc4)cc23)c1F [P-0033] |
| < 1 | CCN(C)S(=O)(=O)Nc1cccc(C(=O)c2c[nH]c3ncc(-c4ccc(F)cc4)cc23)c1F [P-0034] |
| < 1 | CN(C)S(=O)(=O)Nc1cccc(C(=O)c2c[nH]c3ncc(-c4ccc(F)cc4)cc23)c1F [P-0035] |
| < 1 | CCN(C)S(=O)(=O)Nc1cccc(C(=O)c2c[nH]c3ncc(Br)cc23)c1F [P-0038, 5-bromo-3-[3-[[ethyl(methyl)sulfamoyl]amino]-2-fluoro-benzoyl]-1H-pyrrolo[2,3-b]pyridine] |
| < 1 | CCN(C)S(=O)(=O)Nc1cccc(C(=O)c2c[nH]c3ncc(C#N)cc23)c1F [P-0039, 5-cyano-3-[3-[[ethyl(methyl)sulfamoyl]amino]-2-fluoro-benzoyl]-1H-pyrrolo[2,3-b]pyridine] |
| < 1 | CCCN(C)S(=O)(=O)Nc1cccc(C(=O)c2c[nH]c3ncc(-c4cnc(OC)nc4)cc23)c1F [P-0040, 3-[2-fluoro-3-[[methyl(propyl)sulfamoyl]amino]benzoyl]-5-(2-methoxypyrimidin-5-yl)-1H-pyrrolo[2,3-b]pyridine] |
| < 1 | Cn1cc(-c2cnc3[nH]cc(C(=O)c4cccc(NS(=O)(=O)CC5CC5)c4F)c3c2)cn1 [P-0042, 1-cyclopropyl-N-[2-fluoro-3-[5-(1-methylpyrazol-4-yl)-1H-pyrrolo[2,3-b]pyridine-3-carbonyl]phenyl]methanesulfonamide] |
| < 1 | O=C(c1cccc(NS(=O)(=O)N2CCCC2)c1F)c1c[nH]c2ncc(-c3cccnc3)cc12 [P-0043, N-[2-fluoro-3-[5-(3-pyridyl)-1H-pyrrolo[2,3-b]pyridine-3-carbonyl]phenyl]pyrrolidine-1-sulfonamide] |
| < 1 | COc1ncc(-c2cnc3[nH]cc(C(=O)c4cccc(NS(=O)(=O)N5CCCC5)c4F)c3c2)c(OC)n1 [P-0044, N-[3-[5-(2,4-dimethoxypyrimidin-5-yl)-1H-pyrrolo[2,3-b]pyridine-3-carbonyl]-2-fluoro-phenyl]pyrrolidine-1-sulfonamide] |
| < 1 | Cc1ccc(-c2cnc3[nH]cc(C(=O)c4cccc(NS(=O)(=O)N5CCCC5)c4F)c3c2)cn1 [P-0045, N-[2-fluoro-3-[5-(6-methyl-3-pyridyl)-1H-pyrrolo[2,3-b]pyridine-3-carbonyl]phenyl]pyrrolidine-1-sulfonamide] |
| < 1 | CC(C)c1ncc(-c2cnc3[nH]cc(C(=O)c4cccc(NS(=O)(=O)N5CCCC5)c4F)c3c2)cn1 [P-0047, N-[2-fluoro-3-[5-(2-isopropylpyrimidin-5-yl)-1H-pyrrolo[2,3-b]pyridine-3-carbonyl]phenyl]pyrrolidine-1-sulfonamide] |
| < 1 | COc1cc(-c2cnc3[nH]cc(C(=O)c4cccc(NS(=O)(=O)N5CCCC5)c4F)c3c2)ccc1C#N [P-0049, N-[3-[5-(4-cyano-3-methoxy-phenyl)-1H-pyrrolo[2,3-b]pyridine-3-carbonyl]-2-fluoro-phenyl]pyrrolidine-1-sulfonamide] |
| < 1 | N#CC1(c2ccc(-c3cnc4[nH]cc(C(=O)c5cccc(NS(=O)(=O)N6CCCC6)c5F)c4c3)cc2)CC1 [P-0050, N-[3-[5-[4-(1-cyanocyclopropyl)phenyl]-1H-pyrrolo[2,3-b]pyridine-3-carbonyl]-2-fluoro-phenyl]pyrrolidine-1-sulfonamide] |
| < 1 | CC(C)c1ncc(-c2cnc3[nH]cc(C(=O)c4cccc(NS(=O)(=O)N(C)C)c4F)c3c2)cn1 [P-0051, 3-[3-(dimethylsulfamoylamino)-2-fluoro-benzoyl]-5-(2-isopropylpyrimidin-5-yl)-1H-pyrrolo[2,3-b]pyridine] |
| < 1 | CN(C)S(=O)(=O)Nc1cccc(C(=O)c2c[nH]c3ncc(-c4cnc(C5CC5)nc4)cc23)c1F [P-0052, 5-(2-cyclopropylpyrimidin-5-yl)-3-[3-(dimethylsulfamoylamino)-2-fluoro-benzoyl]-1H-pyrrolo[2,3-b]pyridine] |
| < 1 | CN(C)S(=O)(=O)Nc1cccc(C(=O)c2c[nH]c3ncc(-c4ccc(C(F)(F)F)nc4)cc23)c1F [P-0053, 3-[3-(dimethylsulfamoylamino)-2-fluoro-benzoyl]-5-[6-(trifluoromethyl)-3-pyridyl]-1H-pyrrolo[2,3-b]pyridine] |
| < 1 | COc1cc(-c2cnc3[nH]cc(C(=O)c4cccc(NS(=O)(=O)N(C)C)c4F)c3c2)ccc1C#N [P-0054, 5-(4-cyano-3-methoxy-phenyl)-3-[3-(dimethylsulfamoylamino)-2-fluoro-benzoyl]-1H-pyrrolo[2,3-b]pyridine] |
| < 1 | CN(C)S(=O)(=O)Nc1cccc(C(=O)c2c[nH]c3ncc(-c4ccc(C5(C#N)CC5)cc4)cc23)c1F [P-0055, 5-[4-(1-cyanocyclopropyl)phenyl]-3-[3-(dimethylsulfamoylamino)-2-fluoro-benzoyl]-1H-pyrrolo[2,3-b]pyridine] |
| < 1 | CCN(C)S(=O)(=O)Nc1cccc(C(=O)c2c[nH]c3ncc(-c4cnc(C)nc4)cc23)c1F [P-0056, 3-[3-[[ethyl(methyl)sulfamoyl]amino]-2-fluoro-benzoyl]-5-(2-methylpyrimidin-5-yl)-1H-pyrrolo[2,3-b]pyridine] |
